In patent publication US6180599A, “Pharmaceutical composition, containing medium-chain fatty acids as active ingredients, for dental caries and periodontal disease” (priority 1997, dated 2001):

Assays:
dental caries = test: Inhibitory effect on the occurrence of dental caries in rats; type: in vivo, Sprague-Dawley rats; details: for Linear unit for fissure-region dental caries, Dm: dentine moderate; for Linear unit for fissure-region dental caries, Dm / Linear unit for fissure-region dental caries, Ds / Linear unit for fissure-region dental caries, E: 50 mM in feed, 120 days; for Linear unit for fissure-region dental caries, Ds: dentine slight; for Linear unit for fissure-region dental caries, E: enamel only
Experimental: This experiment was carried out utilizing a dental caries experiment model in rats of Navia (1977) as followings.
Experimental animals were 48 (male: 24, female: 24) Sprague-Dawley rats, four-weeks old and of […] average body weight. These animals are equally divided into three groups according to sex and body weight at the early stage, and all these animals have clinically healthy teeth.
Experimental animals are divided into 3 groups according to diet, which are a control group of normal feed, a group of dental caries-induced feed and a experimental group of sodium laurate-added feed. Normal feed is solid feed for rodents (SAMYANG Co., Korea), caries-induced feed is prepared by mixing 40% sugar, 32% powdered milk, 21% flour, 5% yeast, 2% anchovy, 0.01% vitamin B and 0.01% vitamin C. Sodium laurate-added feed was prepared by adding 50 mM of sodium laurate to caries-induced feed. All the experimental animals were allowed water ad libitum.
One hundred twenty days later, all experimental animals were euthanized. The maxilla and mandible were separated, and fixed in 10% neutral formalin. A dental caries index was measured by the method originated by Keyes and modified by Larson (1981). Food debris remaining in the fissure of molar of maxilla and mandible was removed by a Barbed Broach tool used in clinical dentistry, then the molar teeth of maxilla and mandible were cut so that they could include the first, second, and third molar by using an Exact cutting system (Exact-Apprateb, Hamburg, Germany) equipped with a diamond-treated saw. Cutting of the molar teeth of both maxilla and mandible was carried out by a handpiece equipped with cutting disc (thickness, 0.004 inch; diameter, 0.75 inch). The direction of the cutting was from the mesial side of the first molar to the distal side of the third molar. The samples which were cut were stained in order to measure the dental caries-index easily. Staining was carried out as follows; samples were cultured with 0.02% solution of ammonium prupurate (murexide) for 12 hours, washed with flowing water for 10 minutes, then treated with 0.2% of ammoniacal silver nitrate for 30 seconds and washed with flowing water for 2 minutes before measurement. The degree of the affection of dental caries at the cut surface is classified into enamel only (E) when dental caries is affected only to enamel; and into slight (Ds), moderate (Dm) and extensive (Dx) according to the extent of affection when dental caries is affected further into the dentine. The total sum was calculated by adding up marks within the range of linear units administered to each tooth according to the modified method of Larson (1981).
Statistical analysis of each group concerning the linear unit, showing the extent of dental caries, was carried out using the Mann-Whitney test. Statistical analysis according to the feed and the region where the teeth were placed (maxilla or mandible) was carried out by the Kruskal-Wallis test. If more than 2/3 of the dental crown was lost due to serious abrasion and if it was impossible to observe in the process of treating samples, these teeth were excluded in the statistics.

[1] = system: cariogenic plaque bacteria separated from human oral cavities; test: Extracellular polysaccharide synthesis, 20 kinds of bacteria separated from human oral cavities (summary); type: cell-based; details: 1 mM
Experimental: (§1) In order to identify the effect by which medium-chain fatty acids inhibit plaque matrix formation, inhibitory effect and concentration of extracellular polysaccharide synthesis were determined in seven kinds of standard cariogenic plaque bacteria. Also, the inhibitory effect of extracellular polysaccharide synthesis for 20 kinds of cariogenic plaque bacteria, separated from the human oral cavity, was measured. Liquid culture media used were: Todd-Hewitt broth of Streptococcus, Lactobacilli MRS broth of Lactobacillus and Brain Heart Infusion broth of Actinomyces. 0.1 ml of bacterial (or cell) suspension (OD600 =0.5) of each bacteria was inoculated to 5.9 ml of culture media containing 1 mM of medium-chain fatty acids and 2% of glucose, and was cultured for 24^~ 48 hours in 10% CO2 incubator. After culturing, the resultant was centrifuged to precipitate at 5,000×g for 15 minutes, then soluble extracellular polysaccharide was separated and purified from the supernatant and insoluble extracellular polysaccharide from the cell pellet, and then these were quantified. So the experimental results that represent inhibitory effect of medium-chain fatty acids upon extracellular polysaccharide synthesis, are shown in table 1, 2, 3 and 4.

[2] = system: cariogenic plaque bacteria separated from human oral cavities; test: Inhibitory effect of bacterial growth, bacteria separated from human oral cavities; type: cell-based; details: 1 mM lauric acid as salt form; neutral and acidic pH; FIG. 4
Experimental: In order to evaluate how medium-chain fatty acids influence bacterial growth of cariogenic plaque bacteria, the influence on each bacteria was evaluated after selecting seven kinds of bacterial strains as standard bacteria among cariogenic plaque bacteria. […] The results that medium-chain fatty acids have on influencing bacterial growth of cariogenic plaque bacteria is shown in FIG. 3. And the result of measuring inhibitory effect of bacterial growth of 20 kinds of cariogenic plaque bacteria separated from the human oral cavities is shown in FIG. 4.

Streptococcus sobrinus = test: Extracellular polysaccharide synthesis in plaque bacteria separated from human oral cavities; type: cell-based; details: isolate XX, 1 mM
Experimental: as §1

Lactobacillus casei = test: as above; type: cell-based; details: 1 mM
Experimental: as §1

With `CCCCCCCCCCCC(=O)[O-].[Na+]` [C12, sodium laurate] the “Linear unit, Total (average ± standard deviation)” value (dental caries; 164 teeth, P < 0.01 vs caries-inducing feed (3.01 ± 2.35), normal feed 2.34 ± 1.37) was 1.71 ± 1.26, the “Linear unit for fissure-region dental caries, Dm” value (“Linear unit … Dm” below) (dental caries; Mandible, 1st molar) was 0 and the “Linear unit for fissure-region dental caries, Ds” value (“Linear unit … Ds” for short) (dental caries; Mandible, 1st molar) was 7. For the same compound, the “Linear unit for fissure-region dental caries, E” value (dental caries; Mandible, 1st molar) was 72, the “Linear unit … Dm” value (dental caries; Mandible, 2nd molar) was 0 and the “Linear unit … Ds” value (dental caries; Mandible, 2nd molar) was 10. The “Linear unit for fissure-region dental caries, E” value (dental caries; Mandible, 2nd molar) was 55, the “Linear unit … Dm” value (dental caries; Mandible, 3rd molar) was 0 and the “Linear unit … Ds” value (dental caries; Mandible, 3rd molar) was 0. For the same compound, the “Linear unit for fissure-region dental caries, E” value (dental caries; Mandible, 3rd molar) was 16, the “Linear unit … Dm” value (dental caries; Maxilla, 1st molar) was 0 and the “Linear unit … Ds” value (dental caries; Maxilla, 1st molar) was 1. The “Linear unit for fissure-region dental caries, E” value (dental caries; Maxilla, 1st molar) was 61, the “Linear unit … Dm” value (dental caries; Maxilla, 2nd molar) was 0 and the “Linear unit … Ds” value (dental caries; Maxilla, 2nd molar) was 0. For the same compound, the “Linear unit for fissure-region dental caries, E” value (dental caries; Maxilla, 2nd molar) was 41, the “Linear unit … Dm” value (dental caries; Maxilla, 3rd molar) was 0 and the “Linear unit … Ds” value (dental caries; Maxilla, 3rd molar) was 0. For the same compound, the “Linear unit for fissure-region dental caries, E” value (dental caries; Maxilla, 3rd molar) was 17, the “dental caries in experimental animals (in words)” value (dental caries; sodium laurate-added feed) was “noticeably reduced dental caries in experimental animals” and the “inhibition of soluble extracellular polysaccharide synthesis (in words)” value [1] was “noticeably inhibits soluble extracellular polysaccharide synthesis”. The “inhibition of bacterial growth (in words)” value [2] was “more remarkable effects even at low concentration than that of the control group”, the Inhibitory rate (Streptococcus sobrinus) was 79% and the Soluble extracellular polysaccharide (Streptococcus sobrinus; control 116.0 ± 17.2) was 24.0 ± 1.5 µg/mL. For the same compound, the Inhibitory rate (Lactobacillus casei; isolate I) was 76%, the Soluble extracellular polysaccharide (Lactobacillus casei; isolate I, control 105.1 ± 7.2) was 25.1 ± 1.7 µg/mL and the Inhibitory rate (Lactobacillus casei; isolate II) was 71%. It also gave a Soluble extracellular polysaccharide (Lactobacillus casei; isolate II, control 121.4 ± 27.1) of 35.0 ± 2.9 µg/mL, an Inhibitory rate (Lactobacillus casei; isolate III) of 75% and a Soluble extracellular polysaccharide (Lactobacillus casei; isolate III, control 140.4 ± 4.9) of 34.7 ± 0.9 µg/mL. The Inhibitory rate (Lactobacillus casei; isolate IV) was 74%, the Soluble extracellular polysaccharide (Lactobacillus casei; isolate IV, control 151.4 ± 7.6) was 38.8 ± 4.1 µg/mL and the Inhibitory rate (Lactobacillus casei; isolate IX) was 79%. It also gave a Soluble extracellular polysaccharide (Lactobacillus casei; isolate IX, control 214.6 ± 18.8) of 46.1 ± 3.0 µg/mL, an Inhibitory rate (Lactobacillus casei; isolate V) of 73% and a Soluble extracellular polysaccharide (Lactobacillus casei; isolate V, control 137.4 ± 21.8) of 36.6 ± 4.3 µg/mL. The Inhibitory rate (Lactobacillus casei; isolate VI) was 74%, the Soluble extracellular polysaccharide (Lactobacillus casei; isolate VI, control 184.6 ± 6.5) was 48.5 ± 2.7 µg/mL and the Inhibitory rate (Lactobacillus casei; isolate VII) was 70%. It also gave a Soluble extracellular polysaccharide (Lactobacillus casei; isolate VII, control 149.9 ± 16.8) of 44.7 ± 3.1 µg/mL, an Inhibitory rate (Lactobacillus casei; isolate VIII) of 72% and a Soluble extracellular polysaccharide (Lactobacillus casei; isolate VIII, control 221.6 ± 20.1) of 62.6 ± 3.4 µg/mL. It also gave an Inhibitory rate (Lactobacillus casei; isolate X) of 72% and a Soluble extracellular polysaccharide (Lactobacillus casei; isolate X, control 201.7 ± 36.1) of 56.3 ± 8.2 µg/mL.
